Results reported in patent publication US9353152B2, “Induction of the mitochondrial permeability transition” (NewSouth Innovations Pty Limited, priority 2002, dated 2016).
Several values for one entry are separate records, joined by “and”; a condition that tells them apart may be missing. Identical values can stand only once. Like-named read-outs stand apart in the source and are kept apart here.

Experiments:
BAE cells [1] = assay: ATP assay (luciferin/luciferase); format: cell-based, bovine; settings: 150 μM GSAO, 24 h
Protocol: BAE cells in six-well culture plates were arrested for 24 h in 0.5% serum or left in 10% serum, then treated for 24 h with 0, 60 or 150 μM GSAO. The cells were washed once then resuspended in 0.4 mL PBS containing 0.3% bovine serum albumin. A 50 μl sample of cells was mixed with 50 μL water and 100 μL ATP releasing agent (Sigma) and ATP concentration was measured using a luciferin/luciferase ATP assay mix (Sigma). Light units were converted to ATP concentrations using an ATP standard in place of the 50 μL water. Cell number was counted using a Beckman Coulter Counter and mol of ATP was expressed per million cells.

BAE cells [2] = settings: read-out: IC50 (μM)*
BAE cells [3] = format: cell-based, bovine
[4] = tested on: human pancreatic carcinoma BxPC-3 cells; assay: Cell proliferation and viability assay (MTT); format: cell-based; settings: 10% serum, 48 h; read-out: IC50 for proliferation arrest of BxPC-3 cells
Protocol: BAE or human pancreatic carcinoma BxPC-3 cells were seeded at a density of 10^3 cells per well into 96 well plates in DMEM containing 10% foetal bovine serum and allowed to adhere for 24 h. Cells were washed and incubated with DMEM containing 10% foetal bovine serum and GSAO or o-GSAO and cultured for a further 48 h. Some BAE cells were arrested for 24 h in medium containing 0.25% serum and cultured for a further 48 h in medium containing 0.25% or 10% serum, in the presence of GSAO or o-GSAO. Viable attached cells were determined using MTT.

BxPC-3 tumours [5] = assay: Primary tumour growth assay; format: in vivo, SCID mice; settings: 10 mg/kg/day s.c., SCID mice, BxPC-3
Protocol: Female 7 to 9 week old SCID or C57Bl6/J mice were used (Massachusetts General Hospital, Boston, Mass.). Mice were held in groups of 3 to 5 at a 12 hour day and night cycle and were given animal chow and water ad libidum. SCID or C57Bl6/J mice were anaesthetised by inhalation of isoflurane, the dorsal skin shaved and cleaned with ethanol, and a suspension of 2.5×10^6 BxPC-3, HT1080 or LLC cells in 0.2 mL of PBS, or saline for LLC cells, was injected S.C. in the proximal midline. LLC cells were prepared according to O'Reilly et al. (1997). Tumour volume was calculated using the relationship, a·b^2·0.52, where a is the longest and b the shortest diameter.

BAE cells [6] = assay: Mitochondrial mass (nonyl acridine orange uptake); format: cell-based, bovine; settings: GSAO treatment 24 h, proliferating and growth-quiescent cells
Protocol: (§1) For measurements of superoxide levels with dihydroethidine, mitochondrial membrane potential with JC-1, mitochondrial mass with nonyl acridine orange, and apoptosis with annexin V, proliferating or growth-quiescent BAE cells were treated for 24 or 48 h with GSAO in six-well culture plates, then detached with trypsin/EDTA, washed once, and resuspended at 2×10^6 cells per mL in serum-free medium. Cells were then incubated for 15 min at room temperature with dihydroethidine (5 μM, Molecular Probes) or 30 min at room temperature with JC-1 (0.5 μg·mL^−1, Molecular Probes), annexin V-FITC (50 μl·mL^−1) (Pharmingen, La Jolla, Calif., USA), or acridine orange 10-nonyl bromide (5 μM, Molecular Probes). Cells were then washed once, resuspended in 0.5 mL serum-free medium, transferred to ice, and fluorescence was quantitated immediately by flow cytometry.

BAE cells [7] = assay: Mitochondrial membrane potential (JC-1) and apoptosis (annexin V) by flow cytometry; format: cell-based, bovine; settings: 10% serum, 48 h
Protocol: as §1

BxPC-3 tumours [8] = assay: Immunohistochemistry of tumour sections (CD31, PCNA, TUNEL); format: in vivo, SCID mice; settings: day 31, GSAO- versus GSAA-treated tumours
Excerpt: Tumours were fixed in Buffered Formalde-Fresh (Fisher Scientific, Fair Lawn, N.J.), embedded in paraffin and 5 μm thick sections were cut and placed on glass slides. Sections were stained with haematoxylin and eosin or for CD31, PCNA (Holmgren et al., 1995) or fragmented DNA (Gavrielli et al., 1992). […] The proliferative index was estimated by the percentage of cells scored under 400× magnification. A minimum of 1000 cells was counted in two separate sections. The apoptotic index was estimated by the percentage of cells scored under 400× magnification. A minimum of 1500 cells was counted in two separate sections.

[9] = tested on: bovine vascular smooth muscle cells; assay: Proliferation arrest; format: cell-based
Protocol: (§2) To distinguish between the anti-proliferative and pro-apoptotic effects of GSAO, treated cells were stained with propidium iodide (PI) to detect late-apoptotic or dead cells. The total number of cells and the proportion of cells that were PI-positive following 48 h treatment with GSAO were measured by flow cytometry.

[10] = tested on: A549 (human lung carcinoma); assay: Proliferation arrest and loss of viability (cell number and propidium iodide, flow cytometry); format: cell-based; settings: A549, 48 h
Protocol: as §2

[11] = tested on: HT1080 (human fibrosarcoma); assay: as above; format: cell-based; settings: HT1080, 48 h
Protocol: as §2

[12] = tested on: BAE (bovine aortic endothelial); assay: as above; format: cell-based; settings: 48 h
Protocol: as §2

[13] = tested on: HL60 (human erythroid leukaemia); assay: as above; format: cell-based; settings: HL60, 48 h
Protocol: as §2

[14] = tested on: HDMVE (human dermal endothelial); assay: as above; format: cell-based; settings: 48 h
Protocol: as §2

[15] = tested on: BxPC-3 (human pancreatic carcinoma); assay: as above; format: cell-based; settings: for IC50: BxPC-3, 48 h
Protocol: as §2

[16] = tested on: LLC (murine lung carcinoma); assay: as above; format: cell-based; settings: 48 h
Protocol: as §2

[17] = read-out: Loss of Viability IC50
[18] = read-out: Proliferation Arrest IC50

For `N[C@@H](CCC(=O)N[C@@H](CSCC(=O)Nc1ccc([As]=O)cc1)C(=O)NCC(=O)O)C(=O)O` (stereo partly drawn) [GSAO, 4-(N—(S-glutathionylacetyl)amino)-phenylarsenoxide], the “cellular ATP levels in proliferating BAE cells” value (BAE cells [1]) was “reduced ATP levels in proliferating cells to that of growth-quiescent cells”, the IC50 (BAE cells [2]) was 8.28 µM and the “cellular levels of O2^− versus concentration” value (BAE cells [3]) was “increased linearly with GSAO concentration in proliferating, but not growth-quiescent, BAE cells”. The “decrease in H2O2” value (BAE cells [3]) was 30%, the “increase in the level of O2^−” value (BAE cells [3]) was 100% and the IC50 [4] was over 300 µM. For the same compound, the “inhibition of the rate of tumour growth” value (BxPC-3 tumours [5]) was over 90%, the mitochondrial mass (BAE cells [6]) was “unchanged” and the “mitochondrial depolarisation (JC-1) and apoptosis (annexin V binding)” value (BAE cells [7]) was “triggered mitochondrial depolarisation and induced apoptosis”. For the same compound, the “proliferative index (PCNA)” value (BxPC-3 tumours [8]) was “the same”, the “blood vessel density (CD31)” value (BxPC-3 tumours [8]; p<0.001) was “significant reduction” and the “apoptotic index (TUNEL)” value (BxPC-3 tumours [8]; p=0.05) was “significant increase”. The IC50 [9] was about 30 µM, the IC50 [10, 17] was 150 µM and the IC50 [10, 18] was 80 µM. The IC50 [11, 17] was 130 µM, the IC50 [11, 18] was 95 µM and the IC50 [12, 17] was ~75 µM and 75 µM. For the same compound, the IC50 [12, 18] was ~10 µM and 10 µM, the IC50 [13, 17] was 140 µM and the IC50 [13, 18] was 50 µM. The IC50 [14, 17] was ~35 µM and 35 µM, the IC50 [14, 18] was ~15 µM and 15 µM and the IC50 [15, 17] was over 320 µM. The IC50 [15, 18] was over 320 µM, the “concentration without effect on BxPC-3 proliferation relative to endothelial proliferation arrest” value ([15]; Table 1) was over 30 fold and the IC50 [16] was 140 µM.
